In the supplement of paper PMC11061612:

Legend:
[1] = compound: C1CC(C1)(C(=O)[O-])C(=O)[O-].N.N.[Pt+2] [Carboplatin]; details: max 10 µM
Summary of the method: (§1)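 In 1536-well plates, cancer cell lines in 7.5 μl DMEM/F12 or RPMI with 10% FBS spent 24 hours at 37°C and 5% CO2 and were then dosed for 72 hours with final DMSO typically 0.2%. Viability was read by CellTiter-Glo 2.0 luminescence and scaled between blank-well and DMSO-well means. The single-agent IC50 was fitted from dose responses using a logistic curve in a non-linear mixed effects model, and that logistic curve had two parameters.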

[2] = compound: C1CN(CCC1(C(=O)N[C@@H](CCO)C2=CC=C(C=C2)Cl)N)C3=NC=NC4=C3C=CN4 [AZD5363]; details: max 10 µM
Summary of the method: as §1

[3] = compound: C=CCn1c(=O)c2cnc(Nc3ccc(N4CCN(C)CC4)cc3)nc2n1-c1cccc(C(C)(C)O)n1 [AZD1775]; details: max 3 µM
Summary of the method: as §1

[4] = compound: CC(=O)Nc1cccc(-n2c(=O)n(C3CC3)c(=O)c3c(Nc4ccc(I)cc4F)n(C)c(=O)c(C)c32)c1 [Trametinib]; details: max 1 µM
Summary of the method: as §1

[5] = compound: CC(=O)O[C@H]1C(=O)[C@@]2(C)[C@H]([C@H](OC(=O)c3ccccc3)[C@]3(O)C[C@H](OC(=O)[C@H](O)[C@@H](NC(=O)c4ccccc4)c4ccccc4)C(C)=C1C3(C)C)[C@]1(OC(C)=O)CO[C@@H]1C[C@@H]2O [Paclitaxel]; details: max 3 µM
Summary of the method: as §1

[6] = compound: CC(=O)c1c(C)c2cnc(Nc3ccc(N4CCNCC4)cn3)nc2n(C2CCCC2)c1=O [Palbociclib]; details: max 10 µM
Summary of the method: as §1

[7] = compound: CC(C)n1c(=O)n(C)c2cnc3cc(F)c(-c4ccc(OCCCN5CCCCC5)nc4)cc3c21 [AZD1390]; details: max 0.3 µM
Summary of the method: as §1

[8] = compound: CC1(C)CCC(CN2CCN(c3ccc(C(=O)NS(=O)(=O)c4ccc(NCC5CCOCC5)c([N+](=O)[O-])c4)c(Oc4cnc5[nH]ccc5c4)c3)CC2)=C(c2ccc(Cl)cc2)C1 [Venetoclax]; details: max 1 µM
Summary of the method: as §1

[9] = compound: CC1=C(C(=CC=C1)Cl)NC(=O)C2=CN=C(S2)NC3=CC(=NC(=N3)C)N4CCN(CC4)CCO [Dasatinib]; details: max 2 µM
Summary of the method: as §1

[10] = compound: CC1=CN2[C@@H](C1)C=NC3=CC(=C(C=C3C2=O)OC)OCCCCCOC4=C(C=C5C(=C4)N=C[C@@H]6CC(=CN6C5=O)C)OC [SG3199]; details: max 0.001 µM
Summary of the method: as §1

[11] = compound: CCN(CCO)CCCOc1ccc2c(Nc3cc(CC(=O)Nc4cccc(F)c4)[nH]n3)ncnc2c1 [AZD2811]; details: max 1 µM
Summary of the method: as §1

[12] = compound: CCc1c2c(nc3ccc(O)cc13)-c1cc3c(c(=O)n1C2)COC(=O)[C@]3(O)CC [SN-38]; details: max 0.3 µM
Summary of the method: as §1

[13] = compound: CN(C)CCCOc1ccc(-c2ccc3ncc4c(c3c2)n(C2CCOCC2)c(=O)n4C)cn1 [AZD0156]; details: max 3 µM
Summary of the method: as §1

[14] = compound: CN(CC[C@H](CSC1=CC=CC=C1)NC2=C(C=C(C=C2)S(=O)(=O)NC(=O)C3=CC=C(C=C3)N4CCC(CC4)[C@H](C5=CC=CC=C5C6=CC=C(C=C6)Cl)O)S(=O)(=O)C(F)(F)F)CCO [AZD4320]; details: max 1 µM
Summary of the method: as §1

[15] = compound: COc1cc(Nc2ncc3c(n2)-c2ccc(Cl)cc2C(c2c(F)cccc2OC)=NC3)ccc1C(=O)O [Alisertib]; details: max 10 µM
Summary of the method: as §1

[16] = compound: COc1cc([C@@H]2c3cc4c(cc3[C@@H](O[C@@H]3O[C@@H]5CO[C@@H](C)O[C@H]5[C@H](O)[C@H]3O)[C@H]3COC(=O)[C@H]23)OCO4)cc(OC)c1O [Etoposide]; details: max 10 µM
Summary of the method: as §1

[17] = compound: COc1cc2ncnc(Nc3ccc(F)c(Cl)c3)c2cc1OCCCN1CCOCC1 [Gefitinib]; details: max 10 µM
Summary of the method: as §1

[18] = compound: COc1cccc(OCCCN)c1-c1cc(Nc2cnc(C#N)cn2)n[nH]1 [Prexasertib]; details: max 1 µM
Summary of the method: as §1

[19] = compound: COc1cccc2c1C(=O)c1c(O)c3c(c(O)c1C2=O)C[C@@](O)(C(=O)CO)C[C@@H]3O[C@H]1C[C@H](N)[C@H](O)[C@H](C)O1 [Doxorubicin]; details: max 1 µM
Summary of the method: as §1

[20] = compound: COc1nnc2ccc(N3CCC(c4ccc(OCCN5CCN(C)C(=O)[C@H]5C)cc4)CC3)nn12 [AZD5153]; details: max 1 µM
Summary of the method: as §1

[21] = compound: CS(=O)(=O)CCNCc1ccc(-c2ccc3ncnc(Nc4ccc(OCc5cccc(F)c5)c(Cl)c4)c3c2)o1 [Lapatinib]; details: max 10 µM
Summary of the method: as §1

[22] = compound: C[C@@H](Nc1cc(F)cc(F)c1)c1cc(C(=O)N(C)C)cc2c(=O)cc(N3CCOCC3)oc12 [AZD8186]
Summary of the method: as §1

[23] = compound: C[C@@H](Oc1cc(-c2cnn(C3CCNCC3)c2)cnc1N)c1c(Cl)ccc(F)c1Cl [Crizotinib]; details: max 10 µM
Summary of the method: as §1

[24] = compound: C[C@@H](c1ccc2nccn2c1)n1nnc2ncc(-c3cnn(C)c3)nc21 [Savolitinib]; details: max 1 µM
Summary of the method: as §1

[25] = compound: C[C@@H]1COCCN1C2=NC(=NC(=C2)C3(CC3)[S@](=N)(=O)C)C4=C5C=CNC5=NC=C4 [AZD6738]; details: max 10 µM
Summary of the method: as §1

[26] = compound: Cc1c2c(nn1C)CSCc1cc(n(C)n1)CSc1cc(c3ccccc3c1)OCCCc1c(C(=O)O)n(C)c3c-2c(Cl)ccc13 [AZD5991]; details: max 1 µM
Summary of the method: as §1

[27] = compound: Cc1cc2ncnn2cc1Nc1ncc2c(n1)n(C1CCOCC1)c(=O)n2C [AZD7648]; details: max 10 µM
Summary of the method: as §1

[28] = compound: Cc1nc(-c2cn3c(n2)-c2ccc(-c4cnn(C(C)(C)C(N)=O)c4)cc2OCC3)n(C(C)C)n1 [Taselisib]; details: max 10 µM
Summary of the method: as §1

[29] = compound: Cn1cnc2c(F)c(Nc3ccc(Br)cc3Cl)c(C(=O)NOCCO)cc21 [Selumetinib]; details: max 10 µM
Summary of the method: as §1

[30] = compound: N#Cc1cnc(Nc2cc(NC[C@H]3CNCCO3)c(C(F)(F)F)cn2)cn1 [SRA737]; details: max 10 µM
Summary of the method: as §1

[31] = compound: NC1(c2ccc(-c3nc4ccn5c(=O)[nH]nc5c4cc3-c3ccccc3)cc2)CCC1 [MK-2206]; details: max 10 µM
Summary of the method: as §1

[32] = compound: Nc1ccn([C@@H]2O[C@H](CO)[C@@H](O)C2(F)F)c(=O)n1 [Gemcitabine]; details: max 0.3 µM
Summary of the method: as §1

[33] = compound: O=C(Nc1ccc2[nH]nc(-c3ccncc3)c2c1)[C@@H]1CCN(CC(=O)N2CCN(c3ccc(-c4ncccn4)cc3)CC2)C1; details: max 5 µM
Summary of the method: as §1

[34] = compound: O=C(c1cc(Cc2n[nH]c(=O)c3ccccc23)ccc1F)N1CCN(C(=O)C2CC2)CC1 [Olaparib]; details: max 10 µM
Summary of the method: as §1

[35] = compound: O=c1[nH]cc(F)c(=O)[nH]1 [5-Fluorouracil]; details: max 20 µM
Summary of the method: as §1

[36] = compound: C1CN(CCC1(C(=O)N[C@@H](CCO)C2=CC=C(C=C2)Cl)N)C3=NC=NC4=C3C=CN4 [Capivasertib]; details: max 10 µM
Summary of the method: as §1

| Cell Line | IC50, cell viability 72 h [1] | IC50, cell viability 72 h [2] | IC50, cell viability 72 h [3] | IC50, cell viability 72 h [4] | IC50, cell viability 72 h [5] | IC50, cell viability 72 h [6] | IC50, cell viability 72 h [7] | IC50, cell viability 72 h [8] | IC50, cell viability 72 h [9] | IC50, cell viability 72 h [10] | IC50, cell viability 72 h [11] | IC50, cell viability 72 h [12] | IC50, cell viability 72 h [13] | IC50, cell viability 72 h [14] | IC50, cell viability 72 h [15] | IC50, cell viability 72 h [16] | IC50, cell viability 72 h [17] | IC50, cell viability 72 h [18] | IC50, cell viability 72 h [19] | IC50, cell viability 72 h [20] | IC50, cell viability 72 h [21] | IC50, cell viability 72 h ([22]; max 10 µM) | IC50, cell viability 72 h [23] | IC50, cell viability 72 h [24] | IC50, cell viability 72 h [25] | IC50, cell viability 72 h [26] | IC50, cell viability 72 h [27] | IC50, cell viability 72 h [28] | IC50, cell viability 72 h [29] | IC50, cell viability 72 h [30] | IC50, cell viability 72 h [31] | IC50, cell viability 72 h [32] | IC50, cell viability 72 h [33] | IC50, cell viability 72 h [34] | IC50, cell viability 72 h [35] | IC50, cell viability 72 h [36] | IC50, cell viability 72 h ([22]; max 3 µM) |
| --- | --- | --- | --- | --- | --- | --- | --- | --- | --- | --- | --- | --- | --- | --- | --- | --- | --- | --- | --- | --- | --- | --- | --- | --- | --- | --- | --- | --- | --- | --- | --- | --- | --- | --- | --- | --- | --- |
| A673 (Ewing's Sarcoma) | > 10 µM | > 10 µM | > 3 µM | > 1 µM | 0.00699 µM | > 10 µM | > 0.3 µM | > 1 µM | > 2 µM | > 0.001 µM | 0.132 µM | 0.00259 µM | > 3 µM | 0.169 µM | 1.46 µM | 2.27 µM | > 10 µM | 0.0344 µM | 0.284 µM | > 1 µM | > 10 µM | > 10 µM | > 10 µM | > 1 µM | 1.98 µM | > 1 µM | > 10 µM | 6.72 µM | > 10 µM | > 10 µM | > 10 µM | 0.0178 µM | > 5 µM | > 10 µM | > 20 µM |  |  |
| BE-13 (T-Lymphoblastic Leukemia) | > 10 µM | > 10 µM | 0.161 µM | > 1 µM | 0.0141 µM | 3.38 µM | > 0.3 µM | > 1 µM | 0.809 µM | > 0.001 µM | 0.0441 µM | 0.0168 µM | > 3 µM | 0.0999 µM | 0.155 µM | 2.34 µM | > 10 µM | 0.0201 µM | 0.326 µM | 0.312 µM | 8.67 µM | > 10 µM | 0.585 µM | > 1 µM | 4.78 µM | > 1 µM | > 10 µM | > 10 µM | > 10 µM | 3.73 µM | 7.6 µM | 0.0899 µM | > 5 µM | > 10 µM | > 20 µM |  |  |
| BFTC-909 (Kidney Carcinoma) |  |  | 0.579 µM | > 1 µM |  | > 10 µM | > 0.3 µM | > 1 µM | > 2 µM | > 0.001 µM | > 1 µM | 0.0387 µM | > 3 µM | > 1 µM | 7.72 µM |  | > 10 µM | 0.0247 µM | 0.616 µM | 0.909 µM | > 10 µM |  | > 10 µM | > 1 µM | 3.46 µM | > 1 µM | > 10 µM | 3.93 µM | > 10 µM |  | > 10 µM |  |  | > 10 µM |  | 6.1 µM | > 3 µM |
| CAL-72 (Osteosarcoma) | > 10 µM | > 10 µM | 0.587 µM | > 1 µM | 0.0712 µM | > 10 µM | > 0.3 µM | > 1 µM | > 2 µM | > 0.001 µM | > 1 µM | 0.0423 µM | > 3 µM | > 1 µM | 5.04 µM | 6.02 µM | > 10 µM | 0.0169 µM | > 1 µM | > 1 µM | > 10 µM | > 10 µM | > 10 µM | > 1 µM | 2.87 µM | > 1 µM | > 10 µM | > 10 µM | > 10 µM | > 10 µM | > 10 µM | 0.128 µM | > 5 µM | > 10 µM | > 20 µM |  |  |
| ESS-1 (Other Solid Carcinomas) | > 10 µM | 5.5 µM | 0.151 µM | 0.989 µM | 0.00506 µM | > 10 µM | > 0.3 µM | > 1 µM | 0.125 µM | > 0.001 µM | 0.533 µM | 0.00256 µM | > 3 µM | > 1 µM | 3.89 µM | 0.5 µM | > 10 µM | 0.00452 µM | 0.0653 µM | 0.319 µM | > 10 µM | 4.5 µM | 4.82 µM | > 1 µM | 1.77 µM | > 1 µM | > 10 µM | 1.06 µM | > 10 µM | 0.93 µM | > 10 µM | 0.0306 µM | 2.98 µM | > 10 µM | > 20 µM |  |  |
